Experiments:
advanced solid tumors = test: Compound 1 followed by carboplatin IV every 3 weeks in patients with advanced cancer (Example 1)
Method: Compound 1 followed by carboplatin was given intravenously every 3 weeks to patients with advanced solid tumors treated with ≦2 prior chemotherapy regimens. Pharmacokinetics of both drugs were measured on the first course. Twenty-five (25) patients were treated at four dose levels—combining Compound 1 (30 or 40 mg/m^2) with […] or AUC 5 or 6 (Calvert formula; Calvert et al., J. Clin. Oncol., 1989, 7, 1748–1756) of carboplatin. A total of 91 courses were given.

advanced cancer = test: Phase I study of Compound 1 in combination with carboplatin in patients with advanced cancer, day 1 and split day 1/8 schedules (Example 2)
Method: Compound 1 was assessed in Phase I studies in combination with other chemotherapeutic agents. Compound 1 was given as a 60-minute infusion, 30 minutes prior to a 30-minute carboplatin infusion on day 1 every three weeks (or 21 days). Pharmacokinetic samples were taken during the first cycle. Twenty-five (25) patients were treated on this schedule at 4 dose levels (Compound 1 doses of 30 mg/m^2 or 40 mg/m^2 with carboplatin doses of […], or AUC 5 or 6).
A further 14 patients were recruited onto an amended schedule with Compound 1 doses being split and administered on days 1 and 8 every three weeks (or 21 days) and carboplatin being administered on day 1.

[1] = Compound 1 plasma levels (pharmacokinetic samples, first cycle) in Phase I combination study; assay type: in vivo, human; conditions: patients, IV infusion, with carboplatin
From the text: Pharmacokinetic samples were taken during the first cycle.

[2] = system: paclitaxel-sensitive (A2780, HCT116 and LS174T) and paclitaxel-resistant human colon tumors (HCT116/VM46), ovarian carcinoma (Pat-7 and A2780Tax) and breast …; test: Preclinical pharmacology studies, antitumor activity in tumor models; assay type: in vivo

C/C(=C\c1csc(C)n1)[C@@H]1C[C@@H]2O[C@]2(C)CCC[C@H](C)[C@H](O)[C@@H](C)C(=O)C(C)(C)[C@@H](O)CC(=O)N1 (relative stereo) [Compound 1, [1S-1R*,3R*(E),7R*,10S*,11R*,12R*,16S*]]-7,11-dihydroxy-8,8,10,12,16-pentamethyl-3-[1-methyl-2-(2-methyl-4-thiazolyl)ethenyl]-4-aza-17-oxabicyclo[14.1.0]heptadecane-5,9-dione]
confirmed partial responses (advanced solid tumors; Compound 1 30 or 40 mg/m^2 + carboplatin AUC 5 or 6, IV every 3 weeks, 25 patients, breast, neuroendocrine and unknown primary carcinomas): 3/25
patients with disease stabilization and clinical benefit from treatment (advanced solid tumors; Compound 1 + carboplatin every 3 weeks, 25 patients treated): 12 patients
dose at which CTC grade 4 neutropenia was dose limiting (advanced solid tumors; human, in vivo): 40 mg/m^2
maximum tolerated dose of Compound 1 (advanced solid tumors; with carboplatin AUC 5 (Calvert formula), every 3 weeks): 40 mg/m^2
patients showing disease stabilization for more than two months (advanced cancer; Compound 1 + carboplatin): 48%
major toxicities (advanced cancer; Compound 1 + carboplatin, 39 patients over 7 dose levels): myelosuppression, myalgia and peripheral neuropathy
partial responses (advanced cancer; Compound 1 + carboplatin, 39 patients, 2 breast, neuro-endocrine, unknown primary carcinomas and mesothelioma): 5 patients
dose at which DLT was observed, split schedule (advanced cancer; Compound 1 on days 1 and 8 every three weeks with carboplatin AUC 6 on day 1): 25 mg/m^2
dose at which dose limiting toxicity (DLT) occurred (advanced cancer; Compound 1 day 1 every three weeks with carboplatin AUC 6, myelosuppression as major toxicity): 40 mg/m^2
patients who withdrew from the study because of study drug toxicity (advanced cancer; peripheral neuropathy reported in all these patients, 39 patients treated): Eleven
half-life ([1]; human): ~1800 min
Cmax and AUC [1]: increase with dose
volume of distribution [1]: high
oral efficacy ([2]; oral administration, comparable to parenteral administration): orally efficacious
antitumor activity ([2]; paclitaxel-sensitive and paclitaxel-resistant tumor models): very impressive and broad spectrum of antitumor activity

Reference: patent US7008936B2, “Combination of epothilone analogs and chemotherapeutic agents for the treatment of proliferative diseases” (Bristol-Myers Squibb Company, priority 2002, dated 2006)
